Data set [1] in a line: Metabolic stability in mouse liver microsomes assessed as parent compound recovery after 30 mins in presence of NADPH regenerating system by LC-MS/MS analysis. It counts as ADME, Microsome. To be noted: read-out: Drug recovery. (In general: Microsomes from liver hold many membrane-bound enzymes, among them those of drug oxidation.)
Data set [2] has as its target T1, Cysteine protease ATG4B (Homo sapiens) (UniProt Q9Y4P1).
T1 sequence (whole entry): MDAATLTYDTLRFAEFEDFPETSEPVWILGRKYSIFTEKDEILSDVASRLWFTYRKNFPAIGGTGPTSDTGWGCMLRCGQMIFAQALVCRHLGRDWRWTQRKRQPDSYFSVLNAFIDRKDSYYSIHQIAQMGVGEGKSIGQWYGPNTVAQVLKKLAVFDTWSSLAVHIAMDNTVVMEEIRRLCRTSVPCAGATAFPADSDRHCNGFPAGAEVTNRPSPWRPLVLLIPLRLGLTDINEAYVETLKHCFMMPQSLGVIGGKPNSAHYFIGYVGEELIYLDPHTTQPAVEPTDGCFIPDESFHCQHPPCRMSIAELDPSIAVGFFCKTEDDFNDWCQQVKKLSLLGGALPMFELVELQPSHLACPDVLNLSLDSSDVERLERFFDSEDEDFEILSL
Description: Inhibition of Atg4B in human Jurkat T-cells assessed as reduction in everolimus-induced autophagy at […] incubated for 16 hrs by CYTO-ID-based phenotypical screening assay relative to control everolimus alone (reference value: 1 No unit). It counts as cell-based.

The structures appear in SMILES notation.

As for `O=C(O)c1cc(O)c(=O)c2c(O)c(O)c(Br)cc2c1`, the remaining at 0.5 h in data set [1] was determined as 100%.

Regarding `Cn1cnc(N)c2ncnc1-2`, in data set [2], the Ratio stood at 0.57.

The values above are taken from ChEMBL document CHEMBL4418498, “Halogenated benzotropolones as atg4b inhibitors” (2018).
